# Source: patent US4988688A, “4-(N-substituted amino)-2-butynyl-1-ureas and thioureas and derivatives thereof as centrally acting muscarinic agents” (Warner-Lambert Company, priority 1989, dated 1991)
# Counter-ions that a name gives are not always drawn. Like-named read-outs stand apart in the source and are kept apart here.
# What was measured:
# [1] = system: age-related cognitive deficits; details: increasing acetylcholine release from presynaptic nerve terminals; cited from earlier work
# [2] = molecular target: central muscarinic agonist site; assay: Receptor [^3H]Cis-methyldioxalane Assay (RCMD); assay type: binding; details: rat cerebral cortex tissue; radiolabeled cis-methyldioxalane; head prints (0.1 μm)
# [3] = system: central muscarinic antagonist site; assay type: binding, rat; details: read-out: RQNB (1 μM) IC50
# [4] = system: human SK-N-SH cells bearing muscarinic binding sites
# Experimental: In the Muscarinic Induced Inositol Phosphate Accumulation Assay (MIPA) human SK-N-SH cells bearing muscarinic binding sites are incubated with the test compound. The production of inositol phosphates is then measured. Stimulation of inositol phosphate turnover reflects the degree of muscarinic agonist activity of the test compound. The concentration of test compound required to produce a response 50% of the maximum is then determined.
# [5] = system: aged humans and nonhuman primates; details: aged humans and nonhuman primates with decreased cognition; acetylcholinesterase inhibitors such as physostigmine; cited from earlier work
# mice = details: cited from earlier work
compound,measurement,setting,value
"Nc1ccncc1N [3,4-diaminopyridine]",effect on age-related cognitive deficits,[1],ameliorate age-related cognitive deficits
"CNC(=O)N(C)CC#CCN1CCCC1 [Example 1a, N,N'-Dimethyl-N-4-(1-pyrrolidinyl)-2-butynyl]-urea, hydrochloride]",IC50,[2],43.4 nM
same,IC50,[3],8.79 µM
same,MIPA (ED50),[4],2.91 × 10^-5
"CNC(=O)N(C)CC#CCN(C)C.Cl [Example 2, N-[4-(Dimethylamino)-2-butynyl]-N,N'-dimethyl-urea, monohydrochloride]",IC50,[2],275 nM
same,IC50,"[3]; rat cerebral cortex tissue, radiolabeled quinuclidinyl benzilate, head prints (1 μM)",100 µM
same,MIPA (ED50),[4],1.84 × 10^-5
CNC(=O)Oc1ccc2c(c1)[C@]1(C)CCN(C)[C@@H]1N2C [physostigmine],memory improvement,[5],improved memory
"C(#CCN1CCCC1)CN1CCCC1 [tremorine, 1,4-dipyrrolidino-2-butyne]",tremor of the head and limbs and its duration,mice,profound tremor of the head and limbs lasting for more than one hour
